Source: BindingDB's records for doi:10.1021/jm900681h (Amgen, 2009)

target: Cellular tumor antigen p53 (Homo sapiens, UniProt P04637); assay: Induction of p53-Ser15 phosphorylation in human HCT116 cells after 24 hrs
Sequence (P04637 whole entry): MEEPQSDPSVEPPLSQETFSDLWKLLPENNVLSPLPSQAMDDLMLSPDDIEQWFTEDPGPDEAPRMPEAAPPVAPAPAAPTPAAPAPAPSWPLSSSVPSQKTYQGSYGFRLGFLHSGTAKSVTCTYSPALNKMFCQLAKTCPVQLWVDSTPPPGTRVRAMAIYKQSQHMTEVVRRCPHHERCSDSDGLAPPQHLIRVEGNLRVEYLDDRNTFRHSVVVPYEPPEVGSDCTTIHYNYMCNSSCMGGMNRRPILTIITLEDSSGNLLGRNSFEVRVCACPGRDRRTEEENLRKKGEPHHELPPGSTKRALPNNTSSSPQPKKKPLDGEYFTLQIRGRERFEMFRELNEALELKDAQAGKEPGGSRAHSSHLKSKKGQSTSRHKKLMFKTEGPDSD

IC50 [µM] | Structure (SMILES)
1 | Cc1ccc2c(c1)C1=C(C(c3ccc(Br)cc3)O2)C(c2ccc(Br)cc2)n2ncnc2N1C (configuration not stated)

target: not listed separately; assay: Induction of p53 in human HCT116 cells coexpressing pp53TA-luc assessed as inhibition of cell proliferation after 8 hrs by firefly/renilla luciferase reporter assay

Structure (SMILES) | IC50 [µM]
CN1C2=C(C(c3ccc(Br)cc3)Oc3ccc(F)cc32)C(c2ccc(Br)cc2)n2ncnc21 (racemic) [(+/-)-syn-6,7-Bis(4-bromophenyl)-2-fluoro-12-methyl-7,12-dihydro-6H-chromeno[4,3-d][1,2,4]triazolo[1,5-a]pyrimidine] | 44.3
Cc1cc2c(cc1F)OC(c1ccc(Br)cc1)C1=C2N(C)c2ncnn2C1c1ccc(Br)cc1 (racemic) [(+/-)-syn-6,7-Bis(4-bromophenyl)-3-fluoro-2,12-dimethyl-7,12-dihydro-6H-chromeno[4,3-d][1,2,4]triazolo[1,5-a]pyrimidine] | 11.4
CN1C2=C(C(c3ccc(Cl)cc3)Oc3ccccc32)C(c2ccc(Br)cc2)n2ncnc21 (racemic) [(+/-)-syn-7-(4-Bromophenyl)-6-(4-chlorophenyl)-12-methyl-7,12-dihydro-6H-chromeno[4,3-d][1,2,4]triazolo[1,5-a]pyrimidine] | 15

These reach a lower IC50. Values come first.

IC50 [µM] | Structure (SMILES)
3 | Cc1ccc2c(c1)C1=C(C(c3ccc(Br)cc3)O2)C(c2ccc(Br)cc2)n2ncnc2N1C (configuration not stated)
6.5 | CCOc1cccc2c1C1=C(C(c3ccc(Br)cc3)O2)C(c2ccc(Br)cc2)n2ncnc2N1C (racemic) [(+/-)-syn-6,7-Bis(4-bromophenyl)-1-ethoxy-12-methyl-7,12-dihydro-6H-chromeno[4,3-d][1,2,4]triazolo[1,5-a]pyrimidine]
9.37 | CN1C2=C(C(c3ccc(Cl)cc3)Oc3ccccc32)C(c2ccc(Cl)cc2)n2ncnc21 (racemic) [(+/-)-syn-6,7-Bis(4-chlorophenyl)-12-methyl-7,12-dihydro-6Hchromeno[4,3-d][1,2,4]triazolo[1,5-a]pyrimidine]
